Measured values from patent US11821109B2, “Compartmentalised combinatorial chemistry by microfluidic control” (President and Fellows of Harvard College, priority 2004, dated 2023).
Blank lines part the entries; values can stand above or below the compound they belong to.

How the values were obtained:
[1] = Compartmentalisation of small molecules in water-in-fluorocarbon emulsions (exchange between microdroplets); format: physicochemical; conditions: water-in-perfluorooctyl bromide emulsion; 24 hours after mixing
Protocol: Water-in-fluorocarbon emulsions containing 95% (v/v) perfluorooctyl bromide, 5% (v/v) phosphate buffered saline containing the molecule of interest in solution, and 2% (w/v) C8F17C11H22OP(O)[N(CH2CH2)2O]2 (F8H1 IDMP) as surfactant were formed essentially as (Sadtler et al., 1996) by extrusion (15 times) through 14 μm filters (Osmonics) or by homogenising for 5 min at 25,000 r.p.m. using an Ultra-Turrax T8 Homogenizer (DCA) with a 5 mm dispersing tool. Emulsions were made containing a series of small fluorescent molecules dissolved in the aqueous phase at concentrations from […] to 2 mM. These molecules, including calcein, texas red, fluorescein, coumarin 102, 7-hydroxycoumarm-3-carboxylic acid and 7-diethylamino-4-methyl coumarin (coumarin 1), had molecular weights from 203 to 625 Da and Log P values—calculated using SRC's Log Kow/KowWin Program (Meylan and Howard, 1995)—ranging from −0.49 to 4.09. […]
Compartmentalisation of small molecules in a water-in-fluorocarbon emulsions made using microfluidic systems. […] These molecules, including calcein, texas red, fluorescein, coumarin 102, 7-hydroxycoumarin-3-carboxylic acid and 7-diethylamino-4-methyl coumarin (coumarin 1), had molecular weights from 203 to 625 Da and Log P values—calculated using SRC's Log Kow/KowWin Program (Meylan and Howard, 1995)—ranging from −0.49 to 4.09. […]

[2] = target: T1, E. coli β-galactosidase (LacZ) (Escherichia coli, UniProt P00722); assay: LacZ inhibition assay in microfluidic droplets with fluorogenic substrate FMG; format: biochemical
Protocol: In the enzyme inhibition assay, the rate of catalysis is determined by using a non-fluorescent substrate for LacZ, fluorescein mono-β-D-galactoside (FMG), and measuring the appearance of the fluorescent product, fluorescein (excitation […], emission 514 nm). All components of the LacZ inhibition assay are dissolved in assay buffer (10 mM MgCl2, 50 mM NaCl, 1 mM DTT, 100 μg/ml BSA, 10
Leading into each droplet forming module (FIG. 15) are two TEFLON® tubes leading from syringe pumps. The channels leading from each tube merge to create a single flow before entering the droplet forming module. The two syringes feeding into the first droplet forming module contain, (a) 50 μM PETG in assay buffer, and (b), assay buffer. The two syringes feeding into the second droplet forming module contain, (c) 100 nM LacZ in assay buffer, and (d), assay buffer. The two syringes feeding into the third droplet forming module contain, (e) 5 mM FMG in assay buffer, and (f), assay buffer. The final concentration of each component in each droplet is independently controllable by adjusting relative flow rates of each component and buffer solution while maintaining a constant combined flow rate from both syringes.
The first droplet fusion mixes the inhibitor (PETG) with the enzyme (LacZ). After the combined droplet has spent two minutes in a delay line it is fused with a third droplet containing the fluorogenic enzyme substrate (FMG). Finally, after all the components are mixed the reaction is observed by measuring fluorescence of individual droplets or by integrating fluorescent light from droplets with the same concentration of each component during 10-second exposure time at multiple points in the second 10 min long delay line. Each fluorescence intensity value at different positions is proportional to the amount of product at different reaction times. Rate of product formation is linear during initial reaction time and initial rate (v) can be determined from linear fitting. […]

[3] = target: T1, E. coli β-galactosidase (LacZ); conditions: Huang, 1991, cited from earlier work
[4] = target: T2, human recombinant PTP1B, residues 1-322 (Homo sapiens, UniProt P18031); assay: Screening for PTP1B inhibitors in microcapsules in a microfluidic system, fluorogenic substrate DiFMUP; format: biochemical; conditions: Example 2, 100 μM compound solution, PTP1B 50 mU/ml
T2 construct: human recombinant PTP1B, residues 1-322; purchased Biomol Research Laboratories, Inc
T2 sequence (P18031 1-322): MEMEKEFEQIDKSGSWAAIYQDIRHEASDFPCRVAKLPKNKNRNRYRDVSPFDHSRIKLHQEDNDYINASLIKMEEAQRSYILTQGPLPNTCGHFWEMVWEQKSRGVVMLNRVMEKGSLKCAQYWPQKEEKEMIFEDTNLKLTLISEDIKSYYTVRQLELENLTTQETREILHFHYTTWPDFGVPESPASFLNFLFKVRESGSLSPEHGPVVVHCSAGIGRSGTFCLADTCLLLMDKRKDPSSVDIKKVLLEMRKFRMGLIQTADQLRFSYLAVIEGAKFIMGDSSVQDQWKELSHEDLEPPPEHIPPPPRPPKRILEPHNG
Protocol: All water-soluble reagents are dissolved in (25 mM HEPES, pH 7.4, 125 mM NaCl, 1 mM EDTA), a buffer compatible with PTP1B activity. […] Each microcapsule containing target enzyme is fused with a microcapsule containing compound 2 or a microcapsule containing hydrocinnamic acid. Microcapsules containing either compound 2 or hydrocinnamic acid can be formed by switching between injection with syringes containing compound 2 and hydrocinnamic acid.
After microcapsule fusion the contents are rapidly mixed. After this point the microcapsules are run for up to 1 min through a 60 cm long microchannel (to allow inhibitor binding). This microchannel is then merged with a second microchannel containing aqueous microcapsules containing the fluorogenic PTP1B substrate 6,8-difluoro-4-methylumbelliferyl phosphate (DiFMUP) (Molecular Probes) in 25 mM HEPES, pH 7.4, 125 mM NaCl, 1 mM EDTA and the microcapsules fused pairwise. […] Fluorescence of the microcapsules due to production of DiFMU (excitation/emmission maxima 358/452 nm; blue fluorescence) is measured. […]
The 96 mixtures are distributed into 96 wells of a microtitre plate. […] Inhibitors reduce the amount of non-fluorescent substrate (DiFMUP) converted to the dephosphorylated product (DiFMU; excitation/emmission maxima 358/452 nm; blue fluorescence). Microcapsule fluorescence is then analysed.

[5] = target: T3, PTP1B (Homo sapiens, UniProt P18031); conditions: cited from earlier work
T3 sequence (P18031 1-435): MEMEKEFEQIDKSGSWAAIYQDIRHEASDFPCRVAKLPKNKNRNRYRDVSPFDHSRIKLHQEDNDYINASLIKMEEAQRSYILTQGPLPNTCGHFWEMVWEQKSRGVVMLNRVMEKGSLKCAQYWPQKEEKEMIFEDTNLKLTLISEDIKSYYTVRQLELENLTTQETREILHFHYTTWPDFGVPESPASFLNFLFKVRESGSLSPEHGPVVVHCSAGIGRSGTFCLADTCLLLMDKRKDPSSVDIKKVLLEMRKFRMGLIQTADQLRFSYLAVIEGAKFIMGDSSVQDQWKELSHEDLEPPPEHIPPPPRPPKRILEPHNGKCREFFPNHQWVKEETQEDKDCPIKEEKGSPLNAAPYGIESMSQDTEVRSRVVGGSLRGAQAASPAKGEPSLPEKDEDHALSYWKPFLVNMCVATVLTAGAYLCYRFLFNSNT

[6] = 30 nM LacZ, 0 to 13 μM PETG, 10 to 700 μM FMG

T1 sequence (P00722 2-1024): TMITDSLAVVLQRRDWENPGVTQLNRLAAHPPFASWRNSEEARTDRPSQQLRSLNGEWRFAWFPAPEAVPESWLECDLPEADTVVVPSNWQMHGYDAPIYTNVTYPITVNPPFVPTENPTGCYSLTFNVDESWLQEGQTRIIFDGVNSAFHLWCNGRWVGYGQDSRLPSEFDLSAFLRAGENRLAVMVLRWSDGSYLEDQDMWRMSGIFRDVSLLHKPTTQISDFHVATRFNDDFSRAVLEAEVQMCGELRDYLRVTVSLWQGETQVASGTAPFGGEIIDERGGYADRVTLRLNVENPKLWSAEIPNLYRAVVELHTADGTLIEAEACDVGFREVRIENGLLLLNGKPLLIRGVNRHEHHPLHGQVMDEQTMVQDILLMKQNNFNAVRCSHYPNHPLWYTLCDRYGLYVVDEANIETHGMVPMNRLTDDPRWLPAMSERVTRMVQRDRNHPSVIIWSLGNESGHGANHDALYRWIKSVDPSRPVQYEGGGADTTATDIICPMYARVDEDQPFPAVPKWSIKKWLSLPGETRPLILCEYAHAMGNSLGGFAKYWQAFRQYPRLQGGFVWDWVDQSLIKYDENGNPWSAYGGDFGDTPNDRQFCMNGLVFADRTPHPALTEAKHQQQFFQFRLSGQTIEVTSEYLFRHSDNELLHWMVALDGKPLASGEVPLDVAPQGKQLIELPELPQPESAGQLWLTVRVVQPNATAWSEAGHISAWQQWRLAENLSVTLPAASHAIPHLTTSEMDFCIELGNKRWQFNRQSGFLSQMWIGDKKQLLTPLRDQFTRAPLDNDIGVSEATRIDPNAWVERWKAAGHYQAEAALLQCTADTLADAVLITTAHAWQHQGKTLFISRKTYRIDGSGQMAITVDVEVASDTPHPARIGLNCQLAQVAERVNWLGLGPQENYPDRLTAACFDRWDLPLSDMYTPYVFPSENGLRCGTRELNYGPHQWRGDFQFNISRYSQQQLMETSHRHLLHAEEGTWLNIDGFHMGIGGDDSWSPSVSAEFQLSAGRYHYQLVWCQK

Exchange between microdroplets/compartments [1]: No exchange
Compound: O=C(O)CN(CC(=O)O)Cc1cc2c(cc1O)Oc1cc(O)c(CN(CC(=O)O)CC(=O)O)cc1C21OC(=O)c2ccccc21 [calcein]

Compound: O=C1OC2(c3ccc(O)cc3Oc3cc(O[C@@H]4O[C@H](CO)[C@H](O)[C@H](O)[C@H]4O)ccc32)c2ccccc21 (stereo partly drawn) [FMG, fluorescein mono-β-D-galactoside]
XM of FMG for LacZ as determined [2, 6]: within 20% of the previously published value
XM of FMG for LacZ, previously published value [3]: 118 µM

Exchange between microdroplets/compartments [1]: No exchange
Compound: texas red

Fluorescence of the microcapsules due to production of DiFMU [4]: exhibiting blue fluorescence
Compound: O=C(O)CCc1ccccc1 [hydrocinnamic acid]
PTP1B inhibitor or not (statement) [5]: not a PTP1B inhibitor

Compound: OCC1OC(SCCc2ccccc2)C(O)C(O)C1O [PETG, phenylethyl β-D-thiogalactopyranoside]
Ki of PETG for LacZ as determined [2, 6]: within the range of the previously published value
Mode of inhibition ([2]; Lineweaver-Burk plot): competitive
Ki ([3]; read-out: Ki of PETG for LacZ, previously published value): 980 nM
